# Results published in PMC6201195, “The Xylulose 5-Phosphate/Phosphate Translocator Supports Triose Phosphate, but Not Phosphoenolpyruvate Transport Across the Inner Envelope Membrane of Plastids in Arabidopsis thaliana Mutant Plants” (Frontiers in Plant Science, 2018).
# T1: XPT (xylulose 5-phosphate/phosphate translocator) (Arabidopsis thaliana, UniProt Q9LF61)
# T1 construct: full-length XPT cDNA, His-tag (pYES-DEST52), expressed in Saccharomyces cerevisiae InvSC; yeast membranes reconstituted into proteoliposomes, tag kept
# T1 sequence (Q9LF61 1-417 limits assumed): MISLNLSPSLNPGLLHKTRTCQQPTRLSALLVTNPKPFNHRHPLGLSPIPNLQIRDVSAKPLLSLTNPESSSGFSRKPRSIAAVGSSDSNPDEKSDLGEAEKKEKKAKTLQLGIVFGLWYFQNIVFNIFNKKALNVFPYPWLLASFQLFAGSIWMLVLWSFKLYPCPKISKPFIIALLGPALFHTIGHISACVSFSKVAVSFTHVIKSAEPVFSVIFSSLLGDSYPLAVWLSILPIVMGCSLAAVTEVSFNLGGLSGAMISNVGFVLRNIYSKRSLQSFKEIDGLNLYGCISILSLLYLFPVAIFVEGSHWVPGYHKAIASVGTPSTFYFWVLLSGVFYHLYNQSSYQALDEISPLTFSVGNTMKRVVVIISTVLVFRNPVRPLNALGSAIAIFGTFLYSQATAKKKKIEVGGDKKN
# What was measured:
# [1] = biological target: T1, XPT (xylulose 5-phosphate/phosphate translocator); experiment: inhibition of homologous […]/[…] exchange in proteoliposomes with reconstituted yeast membranes; type: biochemical; conditions: external pH 7.0; 0.14 mM 32Pi; hyperbolic fit; alternative transport substrate
# [2] = substrate: O=P(O)(O)O; experiment: cells, lysate or membranes; conditions: external pH 7.0, internal pH 7.8; counter-exchange; labelled compound
Ki(app) [1] [mM],Molecule,Km [2] [µM]
3.76 ± 0.39,C=C(OP(=O)(O)O)C(=O)O [PEP],
,XPT (xylulose 5-phosphate/phosphate translocator) (Arabidopsis thaliana) (protein) MISLNLSPSLNPGLLHKTRTCQQPTRLSALLVTNPKPFNHRHPLGLSPIPNLQIRDVSAKPLLSLTNPESSSGFSRKPRSIAAVGSSDSNPDEKSDLGEAEKKEKKAKTLQLGIVFGLWYFQNIVFNIFNKKALNVFPYPWLLASFQLFAGSIWMLVLWSFKLYPCPKISKPFIIALLGPALFHTIGHISACVSFSKVAVSFTHVIKSAEPVFSVIFSSLLGDSYPLAVWLSILPIVMGCSLAAVTEVSFNLGGLSGAMISNVGFVLRNIYSKRSLQSFKEIDGLNLYGCISILSLLYLFPVAIFVEGSHWVPGYHKAIASVGTPSTFYFWVLLSGVFYHLYNQSSYQALDEISPLTFSVGNTMKRVVVIISTVLVFRNPVRPLNALGSAIAIFGTFLYSQATAKKKKIEVGGDKKN,400 ± 70
